The values below come from ChEMBL document CHEMBL4483862, “Open-source discovery of chemical leads for next-generation chemoprotective antimalarials” (2018).

This test relates to Plasmodium berghei. As to the kind of experiment: Luciferase/luciferin-expressing antifolate-resistant parasites were used to infect a culture of HepG2 cells that were pre-incubated with compounds. Infected hepatocytes emit light due to the luciferase reaction. Assay results are presented as the percent inhibition of light emission compared to control. […]. It is filed as functional. The settings on record: sporozoite; for IC50: read-out: LUCIFERASE INFECTION ASSAY - IC50; for IC90: read-out: LUCIFERASE INFECTION ASSAY - IC90.

As for `CN(CC(=O)Nc1ccc(Cl)c(Cl)c1)C(=O)C12CC3CC(CC(C3)C1)C2`, the IC50 (in general, the concentration that gives 50% inhibition) is over 10 µM and the IC90 (as a rule, the point of the concentration-response curve where the effect stands at 90%) is over 10 µM.
Regarding `O=C(NCc1ccc(-c2nc3ccccc3s2)cc1)c1ccco1`, the IC50 was 2.81 µM and the IC90 was determined as 3.45 µM.
For `CSC1=C(C#N)C(=O)NC(c2ccc(Cl)cc2Cl)S1` (centres undefined) the same measures were over 9.96 µM and over 9.96 µM.
`COc1ccc(CC(N)c2csc(NC(=O)Nc3ccccc3Oc3ccccc3)n2)cc1` (centres undefined): the IC50 is over 7.17 µM and the IC90 is over 7.17 µM.
Take `COc1ccc(CC(N)c2csc(NC(=O)c3cc(C(C)(C)C)oc3C)n2)cc1` (centres undefined): the IC50 came to 2.91 µM and the IC90 turned out to be 4.39 µM.
Consider `COc1cccc(Nc2nc(C(N)Cc3ccc(F)cc3)cs2)n1` (centres undefined), for which the IC50 is over 9.58 µM and the IC90 was over 9.58 µM.
Take `O=C(CN1CCNCC1)N1CCOCC1`: the IC50 is over 15.5 µM and the IC90 is over 15.5 µM.
As to `CCCCCc1c(C)nc(-c2ccccn2)nc1O`, the IC50 is over 12.8 µM and the IC90 was over 12.8 µM.
Take `CSc1ccc(-c2cn3c(-c4cccc(CO)c4)cnc3cn2)cc1`: the IC50 is over 9.5 µM and the IC90 is over 9.5 µM.
Regarding `CN(C)C(=O)c1ccc(-c2cc3c(Nc4cccc(N(C)C)c4)nccc3n2C)cc1`, the IC50 was over 10 µM and the IC90 was over 10 µM.
Consider `N#CCSC1=CC(=O)CC(c2ccccc2)S1` (centres undefined), for which the IC50 was over 12.6 µM and the IC90 was over 12.6 µM.
For the compound `Cc1ccc(Sc2ncnc3sccc23)cc1`, the IC50 was over 12.8 µM and the IC90 was over 12.8 µM.
Take `CCCc1cc(N2CCN(C)CC2)n2ncc(-c3ccccc3)c2n1`: the 50% inhibitory concentration (IC50) was 2.71 µM and the IC90 was over 9.84 µM.
Take `CC(C)(C)c1ccccc1NC(=O)Nc1nc(C(N)Cc2ccccc2)cs1` (centres undefined): the IC50 turned out to be 4.59 µM and the IC90 was 7.79 µM.
For `NC(Cc1ccccc1)c1csc(NC(=O)NC(c2ccccc2)c2ccccc2)n1` (centres undefined), the IC50 was over 7.7 µM and the IC90 was over 7.7 µM.
Turning to `Cc1cc(NCc2cccnc2)n2nc(C(F)(F)F)c(-c3ccccc3)c2n1`, the IC50 was found to be 7.83 µM and the IC90 was over 8.61 µM.
As to `O=C(Nc1ccc(F)cc1)c1cccc(C(=O)Nc2ccc(F)cc2)n1`, the IC50 was 3.45 µM and the IC90 was determined as 5.69 µM.
As for `C=CCSc1nnc(-c2ccco2)n1-c1ccc(OCc2ccccc2)cc1`, the IC50 was over 8.47 µM and the IC90 is over 8.47 µM.
Consider `NNC(=O)c1cc2ccc3ccccc3c2s1`, for which the IC50 was over 13.6 µM and the IC90 is over 13.6 µM.
In the case of `Clc1cccc(-c2cc3c(Nc4ccccn4)nccc3[nH]2)c1`, the IC50 came to 6.48 µM and the IC90 was determined as 6.66 µM.
On to `Cc1ccc(-c2cnc(N)c(-c3ccc(C(=O)NCCN(C)C)cc3)c2)cc1`, for which the IC50 was over 8.81 µM and the IC90 is over 8.81 µM.
With `COc1ccc(CC(N)c2csc(NC(=O)Nc3cccc(Cl)c3)n2)cc1` (centres undefined), the IC50 is over 8.19 µM and the IC90 is over 8.19 µM.
For the compound `CC(=O)Oc1cc2sc(=O)oc2c2ccccc12`, the IC50 was over 12.7 µM and the IC90 was over 12.7 µM.
With `O=C(COC(=O)c1ccc2ccccc2n1)NCCc1ccccc1`, the IC50 was over 10 µM and the IC90 was over 10 µM.
Take `Nc1ncc(-c2cc(C(F)(F)F)cc(C(F)(F)F)c2)cc1-c1ccc(O)cc1`: the IC50 is over 8.29 µM and the IC90 was over 8.29 µM.
Regarding `CCc1ccc(C2NC(=O)NC(C)=C2C(=O)c2ccccc2)cc1` (centres undefined), the IC50 is over 10 µM and the concentration for an effect of 90% (IC90) was over 10 µM.
As for `Nc1ncc(-c2ccc(F)c(Cl)c2)cc1-c1cccc(O)c1`, the IC50 was over 10.5 µM and the IC90 was over 10.5 µM.
`FC(F)(F)c1ccnc(N2CCN(c3ncnc4scc(-c5ccccc5)c34)CC2)n1`: the IC50 is over 7.46 µM and the IC90 was over 7.46 µM.
In the case of `CCOC(=O)c1[nH]c2ccccc2c1-c1ccccc1`, the IC50 is over 12.4 µM and the IC90 was over 12.4 µM.
For the compound `COc1ccccc1-c1cc2c(Nc3ccc4c(c3)OCCO4)nccc2n1C`, the IC50 was 2.39 µM and the IC90 is 4.78 µM.
In the case of `O=S(=O)(c1cc(C(F)(F)F)ccn1)c1cccs1`, the IC50 was over 11.3 µM and the IC90 is over 11.3 µM.
For `CC(C)Oc1ccc(Nc2nccc3[nH]c(-c4ccsc4)cc23)cc1`, the IC50 was found to be 2.25 µM and the IC90 is 4.09 µM.
For `CC(C)CC(N)c1csc(NC(=O)c2ccc(F)c(Cl)c2)n1` (centres undefined) the same measures were 8.74 µM and over 9.65 µM.
In the case of `CSc1sc(-c2ccon2)c(-c2cccs2)c1C#N`, the IC50 is over 10.8 µM and the IC90 was over 10.8 µM.
With `O=C(O)COc1ccccc1CS(=O)(=O)c1ccc(Cl)cc1`, the half-inhibitory concentration (IC50) was over 9.68 µM and the IC90 was over 9.68 µM.
Turning to `O=C(NNC(=O)c1cccs1)c1cncc(C#Cc2ccccc2)c1`, the IC50 was over 9.5 µM and the IC90 was over 9.5 µM.
Turning to `Cc1ccc(S(=O)(=O)CCN2CCC(C#N)CC2)cc1`, the IC50 was over 11.3 µM and the IC90 was over 11.3 µM.
On to `CC(C)(C)c1cc(C(=O)Nc2nc(C(N)CCc3ccccc3)cs2)n(Cc2ccccc2)n1` (centres undefined), for which the IC50 was over 6.97 µM and the IC90 is over 6.97 µM.
In the case of `NC(Cc1ccccc1)c1csc(NC(=O)Nc2ccccc2-c2ccccc2)n1` (centres undefined), the IC50 is over 7.96 µM and the IC90 is over 7.96 µM.
`Cc1cccc(N2CCN(C(=O)c3nn(-c4ccccc4)c(=O)c4ccccc34)CC2)c1C`: the IC50 is over 10 µM and the 90% effect concentration (IC90) was over 10 µM.
For `NC(c1csc(NC(=O)Nc2cccc3ccccc23)n1)C1CCCCC1` (centres undefined), the IC50 was over 8.67 µM and the IC90 is over 8.67 µM.
Take `c1ccc(-c2cc3c(Nc4ccccn4)nccc3[nH]2)cc1`: the IC50 is over 10 µM and the IC90 is over 10 µM.
Regarding `CN(C)C(=O)c1nnsc1S(=O)(=O)c1ccc(Cl)cc1`, the IC50 is 8.45 µM and the IC90 is over 9.95 µM.
For the compound `N=C(NOC(=O)Nc1ccc(OC(F)(F)F)cc1)c1cnccn1`, the IC50 is over 9.67 µM and the IC90 was over 9.67 µM.
For `Cc1nnc(NC(=O)CN2C(=O)COc3ccc(Cl)cc32)s1`, the IC50 was over 9.74 µM and the IC90 is over 9.74 µM.
Consider `CCCCNC(=S)Nc1cc(C(F)(F)F)ccc1N1CCOCC1`, for which the IC50 was over 10 µM and the IC90 is over 10 µM.
In the case of `COc1ccc(OC)c(NC(=O)C2(C)CCN2Cc2ccc(C(C)C)cc2)c1` (centres undefined), the IC50 was over 8.63 µM and the IC90 was over 8.63 µM.
With `CC(N)c1csc(NC(=O)c2cccnc2Oc2ccccc2)n1` (centres undefined), the IC50 was found to be 3.09 µM and the 90% effect concentration (IC90) amounted to 5.22 µM.
For `NC(CCc1ccccc1)c1csc(NC(=O)Nc2cccc3ccccc23)n1` (centres undefined), the IC50 was 5.11 µM and the IC90 is over 8.2 µM.
In the case of `CS(=O)(=O)Nc1ccc(C(=N)NOC(=O)Nc2ccc(C(F)(F)F)cc2)cc1`, the IC50 is over 7.93 µM and the IC90 is over 7.93 µM.
`COc1ccc(Nc2nccc3[nH]c(-c4ccsc4)cc23)cn1`: the IC50 is over 10 µM and the IC90 was over 10 µM.
Turning to `Cc1nc2cc3c(cc2n1CC(=O)N1CCN(c2ccccc2)CC1)OCCO3`, the IC50 is over 10 µM and the IC90 is over 10 µM.
Regarding `CCOc1ccccc1NC(=O)Cc1nc2nc(C)cc(C)n2n1`, the IC50 was over 10.1 µM and the IC90 is over 10.1 µM.
On to `COc1cc(OC)c(C2Nc3cc(Cl)c(S(N)(=O)=O)cc3S(=O)(=O)N2)cc1OC` (centres undefined), for which the IC50 was over 10 µM and the IC90 is over 10 µM.
As for `CCCc1cc(NCCCN2CCOCC2)n2nc(C)c(-c3ccccc3)c2n1`, the IC50 is over 8.39 µM and the IC90 was over 8.39 µM.
Take `CCOC(=O)c1c(C)[nH]c(C(=O)COC(=O)c2ccc(CO)cc2)c1C`: the IC50 is over 10 µM and the IC90 is over 10 µM.
As for `CCNC(=O)N1CCc2nc(Nc3cc(C)cc(C)c3)ncc2C1`, the IC50 was over 10.1 µM and the IC90 was over 10.1 µM.
With `COCOc1ccc(-c2cc(-c3cc(C)c(O)c(C)c3)cnc2N)cc1`, the IC50 is 4.46 µM and the IC90 came out at 6.77 µM.
For `CC(C)N(C(=O)CSc1nnc(-c2cccc(S(=O)(=O)N3CCOCC3)c2)n1-c1ccc(F)cc1)c1ccccc1` the same measures were over 10 µM and over 10 µM.
In the same order, the values of `Cc1ccc(C(=O)Nc2nc(C(N)Cc3ccccc3)cs2)cc1` (centres undefined) are over 9.78 µM and over 9.78 µM.
Turning to `CCN(CC)CC(O)COc1cc(C(F)(F)F)ccn1` (centres undefined), the half-inhibitory concentration (IC50) is over 11.3 µM and the IC90 was over 11.3 µM.
For the compound `CC(C)Oc1cccc(Nc2nccc3[nH]c(-c4cccc(F)c4)cc23)c1`, the IC50 was 1.49 µM and the IC90 is over 10 µM.
For `CC1CN(c2nc(N)c3c(N)nc4c(c3c2C#N)CC(=O)N4C2CCCC2)CC(C)O1` (centres undefined) the same measures were over 10 µM and over 10 µM.
For the compound `CCOC(=O)N1CCN(CC(O)COc2ccc3oc4ccccc4c3c2)CC1` (centres undefined), the IC50 is over 10 µM and the IC90 was over 10 µM.
As to `COc1cccc(Nc2nnc(SCC(=O)N(c3ccccc3)C(C)C)s2)c1`, the IC50 was over 10 µM and the IC90 was over 10 µM.
On to `O=C(CSc1nnc(-c2ccco2)n1-c1ccc2c(c1)OCCO2)Nc1cc(Cl)cc(Cl)c1`, for which the IC50 is over 6.56 µM and the IC90 was over 6.56 µM.
As to `NC(c1ccccc1)c1csc(NC(=O)NC(c2ccccc2)c2ccccc2)n1` (centres undefined), the IC50 was over 7.96 µM and the IC90 was over 7.96 µM.
`CC(C)CC(N)c1csc(NC(=O)NC(c2ccccc2)c2ccccc2)n1` (centres undefined): the IC50 stood at 2.93 µM and the IC90 stood at 3.63 µM.
With `Clc1ccc(SCc2nc(N3CCN(c4ncccn4)CC3)c3c4c(sc3n2)CCC4)cc1`, the IC50 was over 10 µM and the IC90 is over 10 µM.
As to `CC(=O)Nc1cccc(Nc2nccc3[nH]c(-c4cccc(C(F)(F)F)c4)cc23)c1`, the IC50 stood at 0.705 µM and the IC90 came out at 2.28 µM.
Consider `NC(Cc1ccc(F)cc1)c1csc(NC(=O)Nc2ccccc2Oc2ccccc2)n1` (centres undefined), for which the IC50 is over 7.36 µM and the IC90 is over 7.36 µM.
On to `CC(C)Cc1ccc(C2=Nn3c(nnc3-c3cccs3)SC2C)cc1` (centres undefined), for which the IC50 is over 7.34 µM and the IC90 was over 7.34 µM.
